Reference: PMC9658984, “Acetylation Enhances the Anticancer Activity and Oral Bioavailability of 5-Demethyltangeretin” (International Journal of Molecular Sciences, 2022)

Tests used:
Bax = assay: Western blot protein expression, Bax; assay type: cell-based, human; details: PC-3 cells, 10 µM
Description: (§1) Western blot was performed to analyze the protein expression in the PC-3 Cells. The cells were exposed to indicated concentrations of 5-ATAN for various time periods at 37 °C. Then, they were washed with cold PBS and harvested, and a Western blot was conducted as previously described.

Cdc25c = assay: Western blot protein expression, Cdc25c; assay type: cell-based, human; details: PC-3 cells, 10 µM, time-dependent
Description: as §1

PC-3 cells [1] = assay: Wound healing cell migration assay; assay type: cell-based, human; details: 24 h
Description: (§2) The colony formation assay was conducted using a procedure modified from the previous report. PC-3 cells were seeded in 6-well plates at a density of 500 cells/well and allowed to attach for 24 h. Subsequently, the cells were treated with various concentrations of 5-ATAN. After 14 days of incubation, the colonies formed were observed by crystal violet staining and photographed. The wound healing assay was performed to assess the effect of 5-ATAN on the migration ability of PC-3 cells. Cells were seeded into a 6 cm dish at a cell density of 1 × 10^6 cells/well. After being cultured at 37 °C for 24 h, a 200 µL yellow pipette tip was used to scrape a gap in the middle of the dish. After washing twice with 1X PBS solution, the medium was replaced with fresh, serum-free medium containing different concentrations of 5-ATAN and incubated for 24 h. Then, the images were taken with an inverted phase contrast microscope at a magnification of 100×, and the Image J software was used for the measurement of the wound width. The percentage of cell migration (% of control) was calculated by measuring the movement of the cells into the scratch area after 24 h of treatment with DMSO or 5-ATAN.

PC-3 cells [2] = assay: Colony formation assay; assay type: cell-based, human; details: PC-3 cells, 1.25, 2.5 and 5 µM, 14 days
Description: as §2

PC-3 cells [3] = assay: Cell cycle distribution / sub-G1 apoptotic ratio by PI flow cytometry; assay type: cell-based, human; details: 48 h
Description: PC-3 cells were seeded in 96-well plates at a density of 2.5 × 10^3 cells/well and allowed to attach for 24 h. The medium was changed to serum-free RPMI supplemented with 0–20 μM TAN, 5-DTAN, or 5-ATAN, and then incubated for an additional 48 h. The cell viability was determined by the MTT assay and represented as a percentage of the growth of the DMSO-treated cells. FACScan flow cytometer (Becton Dickinson, San Jose, CA, USA) was used to analyze the cell cycle distribution as previously mentioned. Briefly, PC-3 cells treated with various concentrations of 5-DTAN or 5-ATAN for 48 h were trypsinized and gently fixed in 70% ice-cold ethanol and stored at −20 °C for at least 24 h. Then, the cells were washed with cold phosphate-buffered saline (PBS), followed by incubation with 40 μg/mL PI, 0.1 mg/mL RNase A, and 0.1% TritonX-100 in the dark for 30 min at room temperature. Subsequently, the cell cycle distribution of the PI-stained cells was analyzed by a FACScan flow cytometer, and the results were analyzed and calculated using ModFit LT Ver. 3.0 software. The proportion of the sub-G1 phase was quantitated and represented as the apoptotic ratio. Furthermore, a QIAamp DNA mini kit was used to extract DNA from the PC-3 cells treated with 5-DTAN or 5-ATAN for 48 h. Then, the extracted DNA was loaded on a 2% agarose gel containing HealthView^TM Nucleic Acid Stain (Genomics, New Taipei, Taiwan) for electrophoresis at 50 V. The gel was visualized under UV light, and the DNA fragmentation pattern was photographed.

CL1-5 cell xenograft = system: CL1-5 cell xenograft; set-up: method as in PMID 26569090; details: 20 mg/kg i.p., CL1-5 cell xenograft mice; cited from earlier work
PC-3 cell xenografts = assay: Tumor growth inhibition in PC-3 cell xenograft model; assay type: in vivo, nude mice
Description: Male nu/nu mice were obtained from BioLasco Taiwan (Taipei, Taiwan) and maintained on a standard laboratory chow (Purina rodent chow 5001, Purina, St. Louis, MO, USA). At 5 weeks of age, nude mice were used for the xenograft experiment. For the oral bioavailability study, 5-week-old male […] mice were purchased from the National Laboratory Animal Center (Taipei, Taiwan), and the experiment was started after 1 week of acclimation. All mice were housed in an air-conditioned room (temperature: 22 ± 2 °C; humidity: 50–60%) under standard conditions (12 h light/12 h dark cycle). All animal studies were approved by the National Pingtung University of Science and Technology, Institutional Animal Care and Use Committee with protocol numbers NPUST-102-015 and NPUST-105-045.
The 5-week-old nude mice were divided into three groups (n = 6) and administered with the vehicle, 5-DTAN (10 mg/kg), and 5-ATAN (10 mg/kg), respectively. Tumors were established by subcutaneous injections of PC-3 cells (1 × 10^6 cells) into the right flank side of nude mice. The tumor size was measured twice a week with digital calipers, and the tumor volume (V) was calculated by the following formula: V = length × width^2 × 0.5. On day 24, the mice were sacrificed by CO2, and the tumors were harvested and weighed.

PC-3 cells [4] = assay: Mitochondrial membrane potential (DiOC6, flow cytometry); assay type: cell-based, human; details: 2.5-10 µM, 48 h
Description: The PC-3 cells were treated with the indicated concentration of 5-DTAN or 5-ATAN for 48 h, and then cells were collected and stained by a CaspGLOW^TM Fluorescein Active Caspase-3 Staining Kit (Thermo Fisher Scientific, MA, USA) or 3,3′-dihexyloxacarbocyanine iodide (DiOC6, Merck Millipore, Burlington, MA, USA) for caspase-3 activity and mitochondria membrane potential analysis, respectively. The percentages of caspase-3-activated or DiOC6-positive cells were measured using a flow cytometer and calculated by the CellQuest Pro software.

COc1ccc(-c2cc(=O)c3c(OC(C)=O)c(OC)c(OC)c(OC)c3o2)cc1 [5-ATAN, 5-acetyloxy-6,7,8,4′-tetramethoxyflavone]
Expression of Bax (Bax): slight increase | Expression of Cdc25c (Cdc25c): dramatically down-regulated | Suppression of migration compared to the control (PC-3 cells [1]; 1.25 µM): 35.5% | Suppression of migration compared to the control (PC-3 cells [1]; 2.5 µM): 48.5% | Suppression of migration compared to the control (PC-3 cells [1]; 5 µM): 73.6% | Number of colonies (PC-3 cells [2]): dose-dependently decreased | Cell Cycle Distribution (%) G0/G1 (PC-3 cells [3]; 2.5 μM): 58.5 ± 1.1 ^A % | Cell Cycle Distribution (%) G2/M (PC-3 cells [3]; 2.5 μM): 34.7 ± 0.8 ^C % | Cell Cycle Distribution (%) S (PC-3 cells [3]; 2.5 μM): 6.8 ± 0.3 ^B % | Cell Cycle Distribution (%) G0/G1 (PC-3 cells [3]; 5 μM): 49.1 ± 0.3 ^B % | Cell Cycle Distribution (%) G2/M (PC-3 cells [3]; 5 μM): 45.7 ± 0.5 ^B % | Cell Cycle Distribution (%) S (PC-3 cells [3]; 5 μM): 5.2 ± 0.3 ^C % | Apoptotic cells (sub-G1) (PC-3 cells [3]; 10 μM): 22.2% | Cell Cycle Distribution (%) G0/G1 (PC-3 cells [3]; 10 μM): 44.7 ± 0.3 ^C % | Cell Cycle Distribution (%) G2/M (PC-3 cells [3]; 10 μM): 50.3 ± 1.3 ^A % | Cell Cycle Distribution (%) S (PC-3 cells [3]; 10 μM): 4.6 ± 0.5 ^D % | Tumor growth inhibitory rate (CL1-5 cell xenograft): 43% | Tumor growth inhibitory rate, estimated by the means of tumor weight (PC-3 cell xenografts; 10 mg/kg daily oral, nude mice): 61.9% | Tumor weight at the end of the experiment (PC-3 cell xenografts; 10 mg/kg daily oral, nude mice, day 24, control 2.47 ± 0.43 g): 0.94 ± 0.18 g | Effect on tumor volume (PC-3 cell xenografts; 10 mg/kg daily, PC-3 cell xenografts in nude mice): significantly suppressed | Effect on mitochondrial membrane potential (PC-3 cells [4]): dose-dependent decline
